Like-named read-outs stand apart in the source and are kept apart here.
How the values were obtained:
[1] = test system: Patients with Primary or Recurrent Pterygium
Description: A Phase 2a Multicenter, Randomized, Vehicle-Controlled, Dose Escalating Study was carried out to evaluate the Safety, Efficacy and Pharmacokinetics of Nintedanib Ophthalmic Solution in Patients with Primary or Recurrent Pterygium. The multicenter, randomized, double-masked, vehicle-controlled, parallel study was conducted with 28 days three times a day (TID) repeat ocular dosing of vehicle and 0.2% nintedanib, followed by 5-month post-dosing observation.
Pterygium patients often have meibomian gland atrophy and clinical signs and symptoms of MGD, including ocular pain, itchy, foreign body sensation, redness, sensitivity to light and […]. In the Phase II clinical trial, pterygia patients were asked 15 questions on ocular symptom, vision-related functioning and quality of life via Pterygium Symptom and Life Quality (PSLQ) questionnaires.
PSLQ analyses were performed for 4 average category scores; Overall, Ocular Symptoms, Vision-Related Functioning, and Quality of Life Impact.

[2] = cited from earlier work; for Ability to form soluble complex with cholesterol in aqueous solution (in words): 37° C., CDs 1.0 × 10^−2 M; for Absorbance (600 nm), increase due to cholesterol dissolved by CDs: aqueous solution at 37° C., concentration of CDs 1.0 × 10^−2 M
[3] = Screening of CDs and CD derivatives for ability to dissolve cholesterol in water (HPLC); type: physicochemical; conditions: for Concentrations of Cholesterol in CDs Solution: 5 days at ambient, ND = not detectable
Description: Purpose: To determine the level of cholesterol that can be dissolved in water when 10 different CDs and their derivatives were added at three concentrations.
All CD solutions were prepared with starting 20% (w/v) solutions by accurately adding about 800 mg CDs in 4 milliliter water, 1% and 10% were diluted from this 20% solution to 2 mL for each sample preparation experiment.
Cholesterol was added accurately to all CD water solutions at about 40 mg/mL or about 80 mg per 2 mL. This amount of cholesterol was enough to fully saturate the CD solutions with white settlements or floating or both. All samples were conditioned at ambient by shaking using a rotator for 5 days.
After the equilibration with shaking for 5 days at ambient, the clear or semi-clear portion was filtered with 0.2 μm filter. 50 μL of the filtered solution was diluted with 450 μL methanol (10×) for HPLC analysis. NOVAPAK phenyl column (7.6 cm by 3.9 mm I.D.) was used with a mobile phase of acetonitrile: water (70:30) at a flow rate of 0.5 ml/min and detection at UV at 210 nm.

[4] = test system: pterygium patients with dry eye or with no dry eye; test: PSLQ ocular symptom score, further analysis by dry eye condition; type: in vivo, human; conditions: any timepoint
Source text: These ocular symptoms are often observed in MGD patients. Scores of these symptoms were graded by patients as part of PSLQ questionnaires. (1) Dry eye patients vs. Non-dry eye patients (based upon patients' medical history) with the combined nintedanib-treated and vehicle-treated groups. […] The pterygium patients with dry eye condition was compared with pterygium patients with no dry eye condition. In this comparison, all pterygium patients with dry eye condition in the drug and vehicle treated group was combined and the same was done for pterygium patients with no dry eye condition. Number of data points for each group were N=17 for dry eye and N=18 for no dry eye. […] Pterygium patients with dry eye condition had higher baseline score and had bigger reduction from baseline of ocular symptom score during treatment period when compared to pterygium patients with no dry eye condition. (2) Nintedanib vs. Vehicle for dry eye patients (based upon patients' medical history).

| Compound | Ability to form soluble complex with cholesterol in aqueous solution (in words) [2] | Absorbance (600 nm), increase due to cholesterol dissolved by CDs [2] | Ability to dissolve cholesterol in water (in words) [3] | Concentrations of Cholesterol in CDs Solution ([3]; CD 1% (w/v) in water) | also measured |
| --- | --- | --- | --- | --- | --- |
| 2-Hydroxypropyl-beta-cyclodextrin [2-HP-β-CD] | weak ability | 0.01 | substantial ability to dissolve cholesterol | 10000 ng/mL | PSLQ scores compared to the baseline (in words) ([1]; 2-HP-β-CD-treated group): significant improvements; PSLQ Average Vision-Related Functioning Score, Mean ([1]; Baseline, N = 23, SD 0.80, Modified Intent-to-Treat Population): 0.57; PSLQ Average Vision-Related Functioning Score, Change from Baseline, Mean ([1]; Week 2, N = 23, SD 0.65, p-value 0.067 (one sample t-test)): −0.27; PSLQ Average Vision-Related Functioning Score, Change from Baseline, Mean ([1]; Week 4, N = 23, SD 0.65, p-value 0.003): −0.48; PSLQ Average Vision-Related Functioning Score, Change from Baseline, Mean ([1]; Week 8, N = 23, SD 0.62, p-value 0.004): −0.43; PSLQ Average Vision-Related Functioning Score, Change from Baseline, Mean ([1]; Week 16, N = 23, SD 0.56, p-value 0.08): −0.23; PSLQ Average Vision-Related Functioning Score, Change from Baseline, Mean ([1]; Week 24, N = 23, SD 1.1, p-value 0.617): −0.11; Concentrations of Cholesterol in CDs Solution ([3]; CD 10% (w/v) in water): 820000 ng/mL |
| 2-hydroxypropyl-alpha-cyclodextrin [HP-ACD, reference compound] | – | – | no detectable cholesterol dissolving activity | – | – |
| 2-hydroxypropyl-gamma-cyclodextrin [HP-GCD, reference compound] | – | – | extremely low levels | – | Concentrations of Cholesterol in CDs Solution ([3]; CD 10% (w/v) in water): 3000 ng/mL; Concentrations of Cholesterol in CDs Solution ([3]; CD 20% (w/v) in water): 11000 ng/mL |
| OC[C@H]1O[C@H](O[C@H]2[C@H](O)[C@@H](O)[C@@H](OC[C@H]3O[C@@H]4O[C@H]5[C@H](O)[C@@H](O)[C@@H](O[C@H]6[C@H](O)[C@@H](O)[C@@H](O[C@H]7[C@H](O)[C@@H](O)[C@@H](O[C@H]8[C@H](O)[C@@H](O)[C@@H](O[C@H]9[C@H](O)[C@@H](O)[C@@H](O[C@H]%10[C@H](O)[C@@H](O)[C@@H](O[C@H]3[C@H](O)[C@H]4O)O[C@@H]%10CO)O[C@@H]9CO)O[C@@H]8CO)O[C@@H]7CO)O[C@@H]6CO)O[C@@H]5CO)O[C@@H]2CO)[C@H](O)[C@@H](O)[C@@H]1O [6-AM-BCD, 6-O-alpha-maltosyl-beta-cyclodextrin] | – | – | about half lower | 30000 ng/mL | – |
| OC[C@H]1O[C@@H]2O[C@H]3[C@H](O)[C@@H](O)[C@@H](O[C@H]4[C@H](O)[C@@H](O)[C@@H](O[C@H]5[C@H](O)[C@@H](O)[C@@H](O[C@H]6[C@H](O)[C@@H](O)[C@@H](O[C@H]7[C@H](O)[C@@H](O)[C@@H](O[C@H]1[C@H](O)[C@H]2O)O[C@@H]7CO)O[C@@H]6CO)O[C@@H]5CO)O[C@@H]4CO)O[C@@H]3CO [ACD, alpha-cyclodextrin] | do not form soluble complexes with cholesterol | 0 | – | – | – |
| OC[C@H]1O[C@@H]2O[C@H]3[C@H](O)[C@@H](O)[C@@H](O[C@H]4[C@H](O)[C@@H](O)[C@@H](O[C@H]5[C@H](O)[C@@H](O)[C@@H](O[C@H]6[C@H](O)[C@@H](O)[C@@H](O[C@H]7[C@H](O)[C@@H](O)[C@@H](O[C@H]8[C@H](O)[C@@H](O)[C@@H](O[C@H]1[C@H](O)[C@H]2O)O[C@@H]8CO)O[C@@H]7CO)O[C@@H]6CO)O[C@@H]5CO)O[C@@H]4CO)O[C@@H]3CO [BCD, beta-cyclodextrin] | do not form soluble complexes with cholesterol | – | – | – | – |
| COC[C@H]1O[C@@H]2O[C@H]3[C@H](O)[C@@H](OC)[C@@H](O[C@H]4[C@H](O)[C@@H](OC)[C@@H](O[C@H]5[C@H](O)[C@@H](OC)[C@@H](O[C@H]6[C@H](O)[C@@H](OC)[C@@H](O[C@H]7[C@H](O)[C@@H](OC)[C@@H](O[C@H]8[C@H](O)[C@@H](OC)[C@@H](O[C@H]1[C@H](O)[C@H]2OC)O[C@@H]8COC)O[C@@H]7COC)O[C@@H]6COC)O[C@@H]5COC)O[C@@H]4COC)O[C@@H]3COC [DM-BCD, heptakis (2,6-di-O-methyl)-beta-cyclodextrin] | – | 0.336 | the best | – | – |
| OC[C@H]1O[C@@H]2O[C@H]3[C@H](O)[C@@H](O)[C@@H](O[C@H]4[C@H](O)[C@@H](O)[C@@H](O[C@H]5[C@H](O)[C@@H](O)[C@@H](O[C@H]6[C@H](O)[C@@H](O)[C@@H](O[C@H]7[C@H](O)[C@@H](O)[C@@H](O[C@H]8[C@H](O)[C@@H](O)[C@@H](O[C@H]9[C@H](O)[C@@H](O)[C@@H](O[C@H]1[C@H](O)[C@H]2O)O[C@@H]9CO)O[C@@H]8CO)O[C@@H]7CO)O[C@@H]6CO)O[C@@H]5CO)O[C@@H]4CO)O[C@@H]3CO [GCD, gamma-cyclodextrin] | do not form soluble complexes with cholesterol | 0 | – | – | – |
| COC(=O)c1ccc2c(c1)NC(=O)/C2=C(\Nc1ccc(N(C)C(=O)CN2CCN(C)CC2)cc1)c1ccccc1 [Nintedanib 0.2%, nintedanib] | – | – | – | – | PSLQ ocular symptom score, Nintedanib 0.2% vs Vehicle (in words) [4]: no statistically significant differences |
| random methyl-beta-cyclodextrin [M-BCD] | – | – | the best | 150000 ng/mL | – |
| sulfobutylated beta-cyclodextrin [SBE-BCD] | – | – | – | 2000 ng/mL | Concentrations of Cholesterol in CDs Solution ([3]; CD 10% (w/v) in water): 30000 ng/mL; Concentrations of Cholesterol in CDs Solution ([3]; CD 20% (w/v) in water): 150000 ng/mL |

Reference: patent US11007214B2, “Compositions and methods for treating eye diseases” (CLOUDBREAK THERAPEUTICS LLC, priority 2019, dated 2021)
